Source: patent publication US9120789B2, “1-(5-tert-butyl-2-phenyl-2H-pyrazol-3-yl)-3-[2-fluoro-4-(1-methyl-2-oxo-2,3-dihydro-1H-imidazo[4,5-b]pyridin-7-yloxy)-phenyl]-urea and related compounds and their use in therapy” (CANCER RESEARCH TECHNOLOGY LIMITED, priority 2010, dated 2015)

Test system: A375M human melanoma cells (mutant BRAF) xenograft
Assay: Xenograft study, mutant BRAF A375
Format: in vivo, mice
Conditions: for Factor of tumour volume reduction as compared to the control: over the timescale of the study
Method: Biological Methods—Xenograft Studies
SW620 human colorectal carcinoma cells (mutant RAS, 7×10^7) or A375M human melanoma cells (mutant BRAF, 10^7) were inoculated sub-cutaneously in suspension (0.2 mL) into the right flank of female Crl:CD1-Foxn1nu athymic mice. Groups were assigned to treatment following stratified allocation of tumour volumes. Treatment with test compound began between days 11-14 post-cell administration. For gavage, a suspension (DMSO:water, 1:19, v/v at 10 m L/kg) was administered. Control animals received a similar dosage of vehicle (DMSO:water, 1:19, v/v). Treatment with test compound was continued once daily for 24 doses.

## Cn1c(=O)[nH]c2nccc(Oc3ccc(NC(=O)Nc4cc(C(C)(C)C)nn4-c4ccccc4)c(F)c3)c21 [AA-01, 1-(3-Tert-butyl-1-phenyl-1H-pyrazol-5-yl)-3-(2-fluoro-4-(1-N-methyl-2-oxo-2,3-dihydro-1H-imidazo[4,5-b]pyridin-7-yloxy)phenyl)urea]
  Factor of tumour volume reduction as compared to the control: about 2.5

## Cc1ccc(-n2nc(C(C)(C)C)cc2NC(=O)Nc2ccc(Oc3ccnc4[nH]c(=O)n(C)c34)c3ccccc23)cc1 [BB-02, 1-(1-N-p-tolyl-3-tert-butyl-pyrazol-5-yl)-3-(4-(2-oxo-2,3-dihydro-1-N-methyl-1H-imidazo[4,5-b]pyridin-7-yl-oxy)naphthalen-1-yl)urea]
  Factor of tumour volume reduction as compared to the control: about 1.5

## Cc1ccc(-n2nc(C(C)(C)C)cc2NC(=O)Nc2ccc(Oc3ccnc4[nH]c(=O)n(C)c34)cc2)cc1 [XX-02, 1-(1-N-p-tolyl-3-tert-butyl-pyrazol-5-yl)-3-(4-(2-oxo-2,3-dihydro-1-N-methyl-1H-imidazo[4,5-b]pyridin-7-yl-oxy)phenyl)urea]
  Effect on tumour volume as compared to the control (in words): at least to some degree effective
